{
  "source": "patent US20240166702A1",
  "about": "“COMPOSITIONS AND METHODS FOR TREATING BREAST CANCER” (Arizona Board of Regents on Behalf of The University of …, priority 2021, published 2024)",
  "key": {"[1]": {"assay": "Toxicity evaluation in C57Bl/6J female mice", "format": "in vivo, mouse", "settings": "5.0 or 10.0 μg/g body weight, 3×/week IV, 2 weeks; cSNX1.3 versus cPTD4; data not shown", "method": "(§1) Mice are continually bred to activate the pregnancy-dependent WAP promoter, which drives expression of the EGFR ligand Transforming Growth Factor alpha (TGFα) strictly to the mouse mammary glands. This model stochastically forms unifocal mammary adenocarcinomas through a process that begins with mammary hyperplasia, followed by tumor formation over approximately 8 months. […] No difference in weight or behavior or grooming was observed. Therefore 10 μg/g body weight was used for subsequent studies."}, "[2]": {"tested_on": "H1975 cell line with an EGFR driver mutation in the kinase domain (T790M)", "assay": "MTT cell viability assay in H1975 cells", "format": "cell-based", "settings": "3 days"}, "WAP-TGFα tumors [3]": {"tested_on": "WAP-TGFα tumors", "assay": "Histology and protein lysate analysis of treated WAP-TGFα tumors", "format": "in vivo, mouse", "description": "(§2) Mice were bred continuously to induce transgene expression and palpated weekly for tumor formation. […] A. Changes in tumor size from entry into study until end of study are shown for each individual tumor, (*) indicate tumors that entered the study at size greater than 500 mm^3, all other tumors entered the study at ˜100 mm^3. B. a Kaplan-Meier survival curve was generated showing when mice were sacrificed by either reaching tumor burden (2000 mm^3) or the end of the study (p=0.0002). C. Upon sacrifice tumors were harvested and fixed in 10% formalin and embedded in paraffin. Slides were stained with hematoxylin and eosin and imaged at 20×. D. Protein lysates were generated from tumors upon sacrifice and probed for the indicated proteins.\n(§3) A. Tumors (n=6 each treatment) from WAP-TGF mice as described in FIG. 1 were embedded and analyzed by NanoString. […] C. Tumors were dissected, lysed, and analyzed for apoptosis by probing for cleaved PARP and PDL1 expression.\nAt the end of the study, mice were sacrificed and tissues were collected and fixed in 10% buffered formalin or homogenized in tissue lysis buffer. Tissues were sectioned and evaluated for changes to tissue morphology in response to peptide treatment (FIG. 3C). […] Representative tumors from the PARP-cleavage positive (cSNX1.3-treated) and negative (cPTD4-treated) are shown (FIG. 3C).\n(§4) Due to the increased leukocyte infiltration identified by histology of cSNX1.3-treated WAP-TGFα mice, NanoString analysis was performed using a panel that identifies alterations in immune regulators through localized analysis of transcript expression (PanCancer IO 360 Panel). […] These include several immune/inflammatory genes (such as CD2, TLR, CD28, H2-M3, Ly6C1, cytokines, and chemokines) as well as genes that could impact the metastatic potential of the microenvironment (including collagen 11A1 and MM P12). NanoString bioinformatics analysis further identified that these changes could be due to an increase in Cytotoxic T lymphocytes (CTLs) in cSNX1.3-treated samples compared to PTD4 (FIG. 8B). […] Therefore, tumor lysates were prepared and evaluated for apoptosis and a loss of the negative immune checkpoint receptor PDL1 (FIG. 8C). […] These changes could indicate an alteration from an immune-suppressive to an immune-surveilling microenvironment."}, "MCF10A cells": {"tested_on": "MCF10A cells", "format": "cell-based"}, "[4]": {"tested_on": "MDA-MB-468 cells with reduced EGFR", "assay": "MTT viability in MDA-MB-468 cells with shRNA knock down of EGFR", "format": "cell-based, human", "settings": "shRNA to the 3′UTR of EGFR, 5 days IPTG, 3 days peptide, MTT assay", "method": "B. MDA-MD-468 cells were transduced with an IPTG inducible shEGFR targeted against the 3′ UTR of EGFR. These cells were incubated with IPTG for the indicated number of days and lysates were generated to confirm knock down of EGFR. C. In tandem with B., cells were plated and incubated +/−IPTG for 2 days prior to drug treatment. […] After 5 days of IPTG and 3 days of peptide treatment viability was measured using an MTT assay.\nNo effect on CHO cells that lack EGFR expression was observed."}, "nuclear localized EGFR": {"tested_on": "nuclear localized EGFR", "assay": "Subcellular protein fractionation for EGFR nuclear localization", "format": "cell-based, human", "settings": "MDA-MB-468 serum starved, EGF and peptide for 2 hours", "method": "Cells were then fractionated and verified by HSP90 cytosolic protein, Bap31 membrane protein, or HDAC nuclear protein. B. MDA-MB-468 cells were serum starved overnight then stimulated with EGF on ice for 10 minutes. […] B. MDA-MB-468 cells were serum starved overnight then incubated on ice with 10 ng/mL EGF for 10 minutes. […] C. […] After the second week, the number of secondary mammospheres were counted.\nMDA-MB-468 were serum starved overnight then incubated with EGF and peptide for 2 hours to allow for nuclear localization of EGFR. Subcellular protein fractionation was then performed to isolate cytosolic, membrane, and nuclear protein fractions (FIG. 5A)."}, "WAP-TGFα tumors [5]": {"tested_on": "WAP-TGFα tumors", "assay": "NanoString analysis of WAP-TGFα tumors (PanCancer IO 360 Panel)", "format": "in vivo, mouse", "method": "as §3\nC. WAP-TGFα tumors treated with either SNX1.3 or cPTD4 were analyzed for NK cells using an anti-NKp46 antibody. Inset is 20×.\nas §4"}, "[6]": {"tested_on": "EGFR dependent mammary gland tumors of WAP-TGFα mice", "assay": "Tumor regression study in WAP-TGFα transgenic mice", "format": "in vivo, mouse", "description": "as §2\nC. […] D. Cells were treated similarly as in C., fractionated and evaluated for protein localization by immunoblot.\nas §1\nWhen tumors reached >100 mm^3, IV injections began at 3×/week, 10 μg/g body weight and tumors were measured 3×/week with calipers. Animals were injected for 4 weeks or until they reached maximal tumor burden, defined as a single tumor measuring 2000 mm^3. […] The WAP-TGFα is a spontaneous model in which each tumor arises and progresses in a heterogeneous fashion. Each tumor was evaluated separately to determine the overall impact of SNX1.3 treatment (FIG. 3A). […] In this study, mice were sacrificed after 4 weeks of injections or once they reached tumor burden, represented by the Kaplin-Meyer graph (FIG. 3B)."}, "[7]": {"settings": "10 μg/g IV 3×/week, first to last measurement"}},
  "data": [
    {"smiles": "CC[C@H](C)[C@H](NC(=O)[C@@H](NC(=O)[C@H](Cc1c[nH]cn1)NC(=O)[C@H](CC(N)=O)NC(=O)[C@H](CCCCN)NC(=O)[C@H](C)NC(=O)[C@H](CCCNC(=N)N)NC(=O)[C@H](C)NC(=O)[C@H](CCC(N)=O)NC(=O)[C@H](CCCNC(=N)N)NC(=O)[C@H](C)NC(=O)[C@H](C)NC(=O)[C@H](C)NC(=O)[C@H](CCCNC(=N)N)NC(=O)[C@H](C)NC(=O)[C@H](Cc1ccc(O)cc1)NC(C)=O)C(C)C)C(=O)N[C@@H](CCCCN)C(=O)N[C@@H](Cc1ccc(O)cc1)C(=O)N[C@@H](CC(C)C)C(=O)N[C@@H](CCC(=O)O)C(=O)N[C@H](C(=O)N[C@@H](CC(C)C)C(=O)N[C@@H](CC(C)C)C(=O)N[C@@H](Cc1ccc(O)cc1)C(=O)N[C@@H](CO)C(=O)N[C@@H](CCC(N)=O)C(=O)N[C@@H](CCC(N)=O)C(=O)N[C@@H](CCC(N)=O)C(=O)N[C@@H](CC(C)C)C(=O)N[C@@H](C)C(=O)N[C@@H](CCCCN)C(=O)N[C@@H](Cc1ccc(O)cc1)C(=O)N[C@@H](Cc1c[nH]c2ccccc12)C(=O)N[C@@H](CCC(=O)O)C(=O)N[C@@H](C)C(=O)N[C@@H](Cc1ccccc1)C(=O)N[C@@H](CC(C)C)C(N)=O)[C@@H](C)O", "note": "[cSNX1.3]", "values": [
      {"measurement": "difference in weight or behavior or grooming", "setting": "[1]", "result": "No difference"},
      {"measurement": "effect on cell viability", "setting": "[2]", "result": "no effect"},
      {"measurement": "changes to tissue architecture in the normal mammary gland", "setting": "WAP-TGFα tumors [3]; fixed tissue sections at end of study", "result": "No changes"},
      {"measurement": "leukocyte infiltration of tumors", "setting": "WAP-TGFα tumors [3]; identified by histology", "result": "increased"},
      {"measurement": "overall PDL1 expression in tumors", "setting": "WAP-TGFα tumors [3]; tumor lysates", "result": "decrease"},
      {"measurement": "cleaved PARP / apoptosis in treated tumors", "setting": "WAP-TGFα tumors [3]; tumor protein lysates at sacrifice", "result": "significant increase"},
      {"measurement": "impact on normal immortalized cells", "setting": "MCF10A cells", "result": "almost no impact"},
      {"measurement": "efficacy in cells with reduced EGFR", "setting": "[4]", "result": "lacked significant efficacy"},
      {"measurement": "nuclear localized EGFR", "setting": "nuclear localized EGFR", "result": "loss of nuclear localized EGFR"},
      {"measurement": "expression of TLR1, TLR7, TLR8, TLR9, IRF5 and IRF8", "setting": "WAP-TGFα tumors [5]; NanoString", "result": "increased expression"},
      {"measurement": "Cytotoxic T lymphocytes (CTLs) in tumors", "setting": "WAP-TGFα tumors [5]; NanoString bioinformatics, compared to PTD4, six tumors each", "result": "increase"},
      {"measurement": "NK cells in tumor samples", "setting": "WAP-TGFα tumors [5]; NanoString, compared to PTD4 control", "result": "increase"},
      {"measurement": "mice that reached maximal tumor burden (2000 mm^3) before the end of the study", "setting": "[6]; 10 μg/g IV 3×/week, 4 weeks, p=0.0002 between groups", "result": "1/6"},
      {"measurement": "tumors that regressed", "setting": "[6]; [7]", "result": "7/11"},
      {"measurement": "tumors with no change in tumor volume", "setting": "[6]; [7]", "result": "2/11"},
      {"measurement": "tumors that grew through the study", "setting": "[6]; 10 μg/g IV 3×/week, the growing cSNX1.3 tumors entered at greater than 500 mm^3", "result": 2},
      {"measurement": "average tumor regression", "setting": "[6]; 10 μg/g body weight IV 3×/week, 4 weeks or until tumor burden, n=11 tumors", "result": 4, "unit": "mm^3/day"},
      {"measurement": "tumors fully regressed", "setting": "[6]; measured with calipers, confirmed during necropsy", "result": 3},
      {"measurement": "impact on animal weight", "setting": "[6]; weighed throughout the study, 10 μg/g IV 3×/week", "result": "no impact"}
    ]}
  ]
}
